Results taken from patent publication US20110236393A1, “MONOCLONAL ANTIBODY PRODUCTION IN B CELLS AND USES THEROF” (Duke University, priority 2008, published 2011).

Experiments:
[1] = test system: PBMC infected with EBV (B95-8); experiment: EBV transformation efficiency (EBV-induced LCL outgrowth following PBMC infection); assay type: cell-based, human; conditions: for increase of EBV-mediated transformation efficiency: relative to DMSO (set to 1), LCL positive wells at six weeks post infection
Experimental: FIGS. 3A and 3B are graphical plots showing the inhibition of ATM and Chk2 kinases increased EBV transformation efficiency. […] The percentages of wells positive for LCLs at six weeks post infection were plotted relative to the amount of B95-8 virus used per well. The efficiency of transformation was determined by the amount of virus necessary to induce 63% positive wells as indicated by a Poisson's distribution. This value was set to 1 for the DMSO treated infections. The difference between DMSO and 5 μM ATMi treated infections was ˜30-fold increased efficiency in the presence of 5 μM ATMi. In FIG. 3B similar experiments were performed using DMSO (diamond), 2 μM Chk2i II (square), or 5 μM Chk2i II (triangle).
Methods of infecting B cells with EBV are known to those of skill in the art. In some embodiments B cells can be infected with EBV as disclosed in the Examples below. In some embodiments primary human peripheral blood mononuclear cells (PBMCs) can be infected with the EBV strain B95-8 with dilutions starting from a multiplicity of infection such that all B cells express the EBV latent gene expression program (approximately 100 particles/cell) through a dilution where no LCLs grow out. Culturing of the EBV-infected cells in RPMI 1640, 10% FCS, antibiotics, and in the presence of cyclosporine to suppress T cell activity, allows for the outgrowth of LCLs at approximately 1-5% efficiency (transformant/infected cell) within 5 weeks. Scoring of LCL outgrowth can be performed using techniques and analytical equipment as is know to those of skill in the art. By way of example and not limitation, scoring of LCL outgrowth can be performed using a Cellomics Vti Array Scan instrument (ThermoFisher Scientific, Waltham, Mass., United States of America) following Calcein-AM live cell fluorescent staining, which allows for an unbiased readout of LCL outgrowth. […]
Likewise, the downstream ATM target, Chk2, was evaluated for its ability to inhibition EBV-mediated proliferation of B cells. […]

[2] = test system: CD19+ B cells of CFSE-stained PBMC; experiment: CFSE/CD19 B cell proliferation after EBV infection of PBMC; assay type: cell-based, human; conditions: for B cell proliferation in the absence of EBV: 5 μM, no EBV, six days post treatment; for B-cell proliferation (CD19+/CFSElo cells of total PBMCs): EBV infection in presence of 1, 2, 5, 10 μM inhibitor, 14 days post infection
Description: FIGS. 4A, 4B and 4C show inhibition of ATM or Chk2 increased the proliferation of B cells following EBV infection. FIG. 4A is a dot plot of EBV-mediated proliferation following infection of CFSE-stained PBMC, detected by FACS using CD19-PE staining of B cells and CFSE to monitor cell divisions, at 2 and 6 days post infection. At day 2 post infection there was little proliferation, while by day 6 there was clear B cell proliferation induced by the virus. FIG. 4B is a histogram illustrating the effect of CFSE-stained PBMC infected with EBV in the presence of increasing amounts of ATMi or Chk2i (0.1% DMSO, 1 μM, 2 μM, 5 μM, and 10 μM). The percentage of CD19+/CFSElo cells of total PBMCs at 14 days post infection are plotted. The data shown are the average values from two different normal donors with error bars reflecting the standard error. […] FIG. 4C includes dot plots of the proliferation of CFSE-stained PBMC treated with DMSO, 5 μM ATMi, 5 μM Chk21, or infected with EBV. Six days post treatment/infection cells were stained with CD19-PE antibody and proliferation of B cells was assessed. […] The difference in relative B cell proliferation at day six between FIGS. 4A and 4C was due to normal donor variation.
To further characterize the ATM- and Chk2-dependent block to EBV-mediated transformation, B cell proliferation early after infection was analyzed. PBMC were infected and B cell proliferation was followed over time using the fluorescent dye CFSE and CD19 staining of B cells. CFSE staining assays proliferation as its fluorescence is halved in daughter cells. PBMC were stained with the cell permeable dye carboxyfluorescein succinimidyl ester (CFSE). This dye enters the cytoplasm and is cleaved to fluoresce immediately by intracellular esterases. The dye is maintained in cells at a concentration that divides by half with each cell division. Thus, each two-fold reduction of CFSE fluorescence readout by flow cytometry correlates with one cycle of proliferation. CFSE-labeled PBMC were infected with EBV and B cell proliferation was monitored by CD19-PE or APC labeling cells at different days after infection. Flow cytometry was used to analyze the CD19 and CFSE levels in gated live cells (by forward versus side scatter). The percentage of CD19+ cells that have proliferated (CFSElo) relative to total PBMC cell numbers were plotted to indicate a relative proliferation index in panel B of FIG. 4. Using the CD19 marker and CFSE the proliferation of B cells during the early stages of transformation were specifically followed (FIG. 4A).
The above experiments were followed with washout and time of addition experiments using either ATM or Chk2 inhibitor. EBV-infected B cells were determined to be sensitive to the inhibitors between 4 and 8 days after infection. […]

[3] = test system: Chk1 and over 30 other serine/threonine kinases; conditions: Arienti et al., 2005; cited from earlier work
[4] = test system: memory B cells from chronic HIV-1-infected patients; experiment: Frequency of IgG positive cell clones of EBV transformed memory B cells; assay type: cell-based, human; conditions: EBV transformation in presence vs absence of Chk2i II
Description: FIG. 13 is a scatter plot of the frequency of IgG positive cell clones of EBV transformed memory B cells from chronic HIV-1-infected patients in the presence or absence of Chk2i II. An increase in the frequency of IgG positive cell clones in the presence of Chk2i II was observed.
Identification of a HIV-Specific Neutralizing Antibody Following EBV Transformation of Memory B Cells from a Patient Chronically Infected with HIV in the Presence of an Inhibitor of the DNA Damage Response Using the methods of the presently disclosed subject matter, memory B cells from a chronic HIV-1-infected patient were EBV transformed. An increase in the frequency of IgG positive cell clones in the presence of Chk2i II was observed (FIG. 13). It was then determined whether these antibodies would specifically recognize HIV glycoproteins and whether they had biological (e.g. neutralizing) activity. Several potentially HIV-1 neutralizing antibodies were identified during initial screening of the cell culture supernatants. One of these was cloned into a hetero-hybridoma cell line and the IgG mAb was purified (SMB2-2). The mAb bound to HIV-1 gp120 and gp140 proteins (FIG. 14) and captured HIV-1 virions (FIG. 15) and neutralized infection of HIV-1 strains SF162 and MN in vitro (FIG. 16). In preliminary experiments, SMB2-2 neutralized infection of HIV-1 strains SF162 and MN in vitro with an IC50˜10 μg/mL. […]

CD19+ B cells = experiment: B cell number after mitogen stimulation (flow cytometry count); assay type: cell-based, human; conditions: 5 μM Chk2i II vs DMSO, different time points
Experimental: FIG. 11 is bar graph showing that Chk2 […] the total B cell number following CpG treatment or EBV infection. PBMC were stimulated with CpG 2006 (2.5 μg/mL) or infected with EBV (B95-8, MOI 5). CD19+ B cells were assayed 7 days after treatment of infection using flow cytometry. The total number of viable CD19+ B cells is plotted.
FIG. 12 is a histogram showing that Chk2 inhibition increased B cell number following CpG or CpG system stimulation. Cells were assayed at different time points after stimulation. Circles are CpG treated samples and squares are CpG system treated samples. Open symbols are DMSO-treated and closed symbols are Chk21-treated.
Inhibition of the DDR increased B Cell proliferation in response to mitogens This Example pertains to inhibition of the DDR signaling pathway as a means to increase B cell mitogen induced proliferation. In FIG. 11 inhibition of Chk2 increased the number of B cells proliferating following either CpG DNA treatment or EBV infection as B cell mitogens. […] Total B cell number refers to CD19+ cells gated for viability using forward and side scatter and normalized to polystyrene beads.
The proliferation of cells in response to a combination of mitogenic signals was also assayed in the presence of a DNA damage response inhibitor. […] Cells were counted at different time points using the assay described in Example 10. […]

[5] = test system: IgG+ memory B cells infected with EBV B95-8; experiment: Outgrowth of EBV-infected IgG+ memory B cells (positive wells at 4 weeks); assay type: cell-based, human; conditions: EBV B95-8 MOI 5, CpG 2.5 μg/mL, Chk2i 5 μM, 1,000 and 300 cells per well
Description: This Example pertains to the evaluation of whether inhibition of the DDR, in particular Chk2, is capable of increasing the efficiency of EBV transformation of memory B cells and whether the frequency of antibody secreting cells will increase. As a positive control, CpG 2006 TLR9 agonist was included either alone or together with Chk21. The CpG employed was CpG 2006 (Hartmann and Krieg, The Journal of Immunology, 2000, 164: 944-952.). The Chk2i employed was Chk2i II (Arienti et al., 2005 J. Med Chem 48:1873-1875).
Normal donor peripheral blood mononuclear cells (PBMC) were sorted to >95% pure IgG+ memory B cells using a scheme of positive selection for CD19 and CD27 and negative selection of IgM, IgD, and IgA. Cells were then infected with EBV B95-8 strain at an MOI of 5 and either DMSO, CpG (2.5 μg/mL), Chk2i (5 μM), or CpG +Chk21. Cells were seeded in 96-well plates with 50,000 lethally irradiated J774A.1 cells at different amounts. […] Wells were analyzed at 4 weeks for outgrowth and positive wells are plotted as a percentage for each condition. […] These were measured by IgG-specific ELISA.

SMILES | increase of EBV-mediated transformation efficiency ([1]; 2 μM inhibitor) | increase of EBV-mediated transformation efficiency ([1]; 5 μM inhibitor) [fold] | B cell proliferation in the absence of EBV [2] | B-cell proliferation (CD19+/CFSElo cells of total PBMCs) [2] | specificity over Chk1 and over 30 other serine/threonine kinases [3] | EBV transformation efficiency (in words) ([1]; 2 μM and 5 μM vs DMSO) | frequency of IgG positive cell clones [4] | B cell number following CpG stimulation (CD19+ B cells) | B cell number following CpG system stimulation (CD19+ B cells; CpG DNA, anti-Ig, IL-2, IL-10) | outgrowth of memory B cells (positive wells) [5]
O=c1cc(-c2cccc3c2Sc2ccccc2S3)oc(N2CCOCC2)c1 [ATMi] | approximately 3 fold | ~30 | No effect | dose dependent increase |  |  |  |  |  | 
CC(=O)c1ccc2c(c1)C=C(c1ccc(Oc3ccc(Cl)cc3)cc1)C2 [Chk2i II] |  |  | No effect | dose dependent increase | exquisite specificity | dramatic and dose-dependent increase | increase | increased | increased | increased the ability of B cells to grow out
